Holding throughout (test): NCI tumour cell line growth inhibition, 48 h
For assay [1], the system named is SNB-78.
Assay [2] deals with LXFL 529.
The test system of assay [3] is XF498.
Assay [4] concerns KM-20L2.
Assay [5] deals with M19-MEL.
In assay [6] the test system is RXF 631.
Assay [7] relates to DMS-114.
Assay [8] has as its system DLD-1.
Assay [9] has as its system HOP-18.

Each structure is given as a SMILES string.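 Values below derive from 48-hour exposures of cells grown in 96-well plates, with endpoints linearly interpolated between the two concentrations bracketing the appropriate inhibition level. GI50: concentration for 50% inhibition of growth.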 Active and inactive are the calls of the source. Cut-off read from the data, not from the text of the source: active = GI50 up to about 1.1 µM and inactive = higher. A value given as a limit tells only on which side of the number the result lay.

In the case of `COC(=O)C(Cc1c[nH]c2ccccc12)NC(=O)C(Cc1c[nH]c2ccccc12)NC(=O)OCc1ccccc1` (stereo unspecified), the GI50 is 25.8 µM (inactive) in [1]; 16.7 µM (inactive) in assay [2]; 14.8 µM (inactive) in [3]; 18.2 µM (inactive) in [4]; 18.4 µM (inactive) in [5]; 24 µM (inactive) in assay [6]. Further, the GI50 in [7] was 19.4 µM (inactive); in assay [8], 18.5 µM (inactive).
For the compound `Cc1nc2c(N)ncnc2o1`, the GI50 in [1], in assay [2], in assay [9], in assay [4], in assay [5] and in assay [6] was > 100 µM (inactive) each time. Besides, the GI50 in assay [7] and in assay [8] was > 100 µM (inactive) throughout.
With `COc1c2c(cc3c1C(=O)Cc1ccc4c(c1CN(C)CC3)OCO4)OCO2`, the GI50 in assay [1] was > 100 µM (inactive); in [9] it was 20.7 µM (inactive); in [4], 38.2 µM (inactive); in assay [5], > 100 µM (inactive); in assay [6] it was 44.8 µM (inactive); in assay [7], 39.4 µM (inactive). Besides, the GI50 in [8] is > 100 µM (inactive).
For `CN/N=C(\C)CC(=O)Nc1cccc(Cl)c1C`, the GI50 in assay [1], in [2], in [9], in assay [3], in [4] and in assay [5] was > 100 µM (inactive) in each case. Moreover, the GI50 in assay [6], in assay [7] and in assay [8] was > 100 µM (inactive) in each case.
Turning to `C=CCN1CCC23c4c5ccc(O)c4OC2C(=NN=C2CCC4(O)C6Cc7ccc(O)c8c7C4(CCN6CC=C)C2O8)CCC3(O)C1C5` (stereo unspecified), the GI50 in [1] was 27.2 µM (inactive); in assay [2], 32.1 µM (inactive); in [9], > 100 µM (inactive); in assay [3], 17.3 µM (inactive); in assay [4], 23.3 µM (inactive); in assay [6] it was 20.5 µM (inactive). In addition, the GI50 in [7] was 24.7 µM (inactive); in [8], 38.7 µM (inactive).
Consider `CCOC(=O)C12CCCC1(O)N(NC(=O)OC)C(C)=C2C(=O)OC` (stereo unspecified), for which the GI50 in assay [1], in assay [2], in assay [9], in assay [3], in [4] and in [5] was > 100 µM (inactive) throughout. The GI50 in assay [6], in [7] and in assay [8] was > 100 µM (inactive) in each case.
Take `CCOC(=O)CCn1cnc(N)n1`: the GI50 in assay [1], in assay [2], in assay [9], in assay [3], in [4] and in [5] was > 100 µM (inactive) each time. For the same compound, the GI50 in assay [6], in assay [7] and in assay [8] was > 100 µM (inactive) each time.
`COc1ccc(C(=O)C(C(=O)CCC(=O)Nc2ccc(Cl)c(Cl)c2)c2ccc(OC)cc2)cc1` (stereo unspecified): the GI50 in assay [1], in [2], in [9], in assay [3], in assay [4] and in [5] was > 100 µM (inactive) throughout. For the same compound, the GI50 in assay [6], in [7] and in assay [8] was > 100 µM (inactive) throughout.
For `C=CC1=CC(C)C[C@]1(O)C(=O)OC` (stereo partly specified), the GI50 is > 100 µM (inactive) in [1]; < 0.01 µM (active) in assay [2]; > 100 µM (inactive) in assay [9]; < 0.01 µM (active) in [3]; > 100 µM (inactive) in assay [4]; < 0.01 µM (active) in assay [5]. In addition, the GI50 in assay [6], in assay [7] and in assay [8] was < 0.01 µM (active) each time.

Source of the values: ChEMBL document CHEMBL1201862, “PubChem BioAssay data set” (2004).
